# Entries after “also recorded” stand apart in the source; their conditions may differ. Positions of bridges follow the written chain, without caps; N, C: chain ends. Non-standard residues stand in square brackets, D forms with d. Residues, ends and D or L forms follow the SMILES beside them. *: point of attachment. Ileψ(thiazoline)Cys = CC[C@H](C)[C@H](N)C1=N[C@H](C(=O)*)CS1; dOrn = NCCC[C@@H](N)C(=O)O
# Tested on: sigE promoter
# Assay: sigE promoter bioassay: sigEp-neo fusion (pIJ6880) in M600, paper discs on MMT medium with lethal kanamycin, halo of kanamycin-resistant growth
# Type: cell-based, Streptomyces coelicolor A3(2)
# Conditions: for induction of the sigE promoter (halo of kanamycin-resistant growth), in words: M600 carrying pIJ6880, MMT medium, kanamycin 100 μg ml^−1, paper disc; for potency as inducer of the sigE promoter, in words: M600 carrying pIJ6880, kanamycin 100 μg ml^−1, paper disc
# Procedure: To see if the sigE promoter could be induced by control-antibiotics known to target the cell envelope, spores of M600 carrying pIJ6880 were spread on MMT medium carrying a lethal concentration of kanamycin (100 μg ml^−1) and potential inducers were applied on paper discs to the freshly spread plates.
# In order to perform the assay of the invention,spores of the host microorganism, for example, M600 carrying pIJ6880, are spread on MMT medium carrying a lethal concentration of kanamycin (100 μg ml^−1)at concentration of approximately 5×10^6/12 cm^2 plate. Test compound is applied on paper discs to a number of freshly spread plates in parallel using a different concentration of the test compound in each plate.
Compound,"induction of the sigE promoter (halo of kanamycin-resistant growth), in words",other results
[H]/N=C(/N)N[C@H]1[C@H](O)[C@@H](O)[C@H](O[C@@H]2O[C@@H](C)[C@](O)(C=O)[C@H]2O[C@@H]2O[C@@H](CO)[C@H](O)[C@@H](O)[C@@H]2NC)[C@@H](N/C(N)=N\[H])[C@@H]1O [Streptomycin],do not induce a halo,–
CC1(C)S[C@@H]2[C@H](NC(=O)[C@H](N)c3ccccc3)C(=O)N2[C@H]1C(=O)O [Ampicillin],found to induce the sigE promoter,–
Teicoplanin,induced a halo of kanamycin-resistant growth; also recorded: found to induce the sigE promoter,"potency as inducer of the sigE promoter, in words: particularly potent inducers"
CO[C@@H]1[C@@H](OC(N)=O)[C@@H](O)[C@H](Oc2ccc3c(O)c(NC(=O)c4ccc(O)c(CC=C(C)C)c4)c(=O)oc3c2C)OC1(C)C [Novobiocin],do not induce a halo,–
N[C@@H](C(=O)N[C@@H]1C(=O)N2C(C(=O)O)=C(Cl)CS[C@H]12)c1ccccc1 [Cefaclor],found to induce the sigE promoter,–
CC1=C(C(=O)O)N2C(=O)[C@@H](NC(=O)[C@H](N)c3ccc(O)cc3)[C@H]2SC1 [Cefadroxil],found to induce the sigE promoter,–
CC1(C)S[C@@H]2[C@H](NC(=O)[C@H](C(=O)O)c3ccsc3)C(=O)N2[C@H]1C(=O)O [Ticarcillin],induced a halo of kanamycin-resistant growth; also recorded: found to induce the sigE promoter,–
lysozyme,acted as an inducer,–
Ristocetin,induced a halo of kanamycin-resistant growth; also recorded: found to induce the sigE promoter,"potency as inducer of the sigE promoter, in words: particularly potent inducers; amount giving a positive reaction in the bioassay (initial assessment of sensitivity) (sigE promoter bioassay): 75 ng"
Cc1onc(-c2ccccc2)c1C(=O)N[C@@H]1C(=O)N2[C@@H]1SC(C)(C)[C@@H]2C(=O)O [oxacillin],found to induce the sigE promoter,–
C=C(NC(=O)C(=C)NC(=O)c1csc(C2=N[C@@H]3c4csc(n4)[C@H]4NC(=O)c5csc(n5)[C@H]([C@](C)(O)[C@@H](C)O)NC(=O)[C@H]5CSC(=N5)/C(=C/C)NC(=O)[C@H]([C@@H](C)O)NC(=O)c5csc(n5)[C@]3(CC2)NC(=O)[C@H](C)NC(=O)C(=C)NC(=O)[C@H](C)NC(=O)[C@H]([C@@H](C)CC)N[C@@H]2C=Cc3c([C@H](C)O)cc(nc3[C@H]2O)C(=O)O[C@@H]4C)n1)C(N)=O [Thiostrepton],do not induce a halo,–
CC1(C)S[C@@H]2[C@H](NC(=O)[C@H](N)c3ccc(O)cc3)C(=O)N2[C@H]1C(=O)O [Amoxycillin],induced a halo of kanamycin-resistant growth,–
CC1=C(C(=O)O)N2C(=O)[C@@H](NC(=O)[C@H](N)C3=CCC=CC3)[C@H]2SC1 [Cepharadine],found to induce the sigE promoter,–
CN[C@H](CC(C)C)C(=O)N[C@H]1C(=O)N[C@@H](CC(N)=O)C(=O)N[C@H]2C(=O)N[C@H]3C(=O)N[C@H](C(=O)N[C@H](C(=O)O)c4cc(O)cc(O)c4-c4cc3ccc4O)[C@H](O)c3ccc(c(Cl)c3)Oc3cc2cc(c3O[C@@H]2O[C@H](CO)[C@@H](O)[C@H](O)[C@H]2O[C@H]2C[C@](C)(N)[C@H](O)[C@H](C)O2)Oc2ccc(cc2Cl)[C@H]1O [Vancomycin],induced a halo of kanamycin-resistant growth; also recorded: found to induce the sigE promoter,"potency as inducer of the sigE promoter, in words: particularly potent inducers; signs of toxicity to the reporter strain while acting as inducer (halo grows to the edge of the disc) (paper disc, FIG. 2): without showing any signs of toxicity"
CC1=C(C(=O)O)N2C(=O)[C@@H](NC(=O)[C@H](N)c3ccccc3)[C@H]2SC1 [Cephalexin],found to induce the sigE promoter,–
CC1(C)S[C@@H]2[C@H](NC(=O)Cc3ccccc3)C(=O)N2[C@H]1C(=O)O [Penicillin G],induced a halo of kanamycin-resistant growth; also recorded: found to induce the sigE promoter,–
CC[C@H](C)[C@H](N)C1=N[C@H](C(=O)N[C@@H](CC(C)C)C(=O)N[C@H](CCC(=O)O)C(=O)N[C@H](C(=O)N[C@H]2CCCCNC(=O)[C@H](CC(N)=O)NC(=O)[C@@H](CC(=O)O)NC(=O)[C@H](Cc3cnc[nH]3)NC(=O)[C@@H](Cc3ccccc3)NC(=O)[C@H]([C@@H](C)CC)NC(=O)[C@@H](CCCN)NC2=O)[C@@H](C)CC)CS1 [Bacitracin] ({Ileψ(thiazoline)Cys}-L[dE]IK[dOrn]I[dF]H[dD]N; lactam 4-C),found to induce the sigE promoter,"potency as inducer of the sigE promoter, in words: particularly potent inducers"
